Data published in paper PMC12362796, “Bilirubin Targeting WNK1 to Alleviate NLRP3‐Mediated Neuroinflammation” (Advanced Science, 2025).
pKd: −log10 of the molar value.

How the values were obtained:
phospho-S940 KCC2 = experiment: Western blotting of phospho-S940 KCC2 in hippocampal tissue; assay type: cell-based, mouse
Source text: Since bilirubin‐induced activation of WNK1 kinase activity increases [Cl⁻]i in neurons, we sought to elucidate the downstream effector proteins of WNK1 that are involved in this process. Neuronal [Cl⁻]i is primarily regulated by the Cl⁻‐K⁺ symporter KCC2, with additional modulation by factors such as the Na⁺‐K⁺‐Cl⁻ co‐transporter NKCC1, GABAA receptors, and glycine receptors (GlyR), all of which contribute to [Cl⁻]i homeostasis.^[ [31] ^] To investigate the mechanism underlying bilirubin‐induced changes in [Cl⁻]i, we selectively targeted these proteins using pharmacological inhibitors (VU0463271 for KCC2, bumetanide for NKCC1, bicuculline for GABAA receptors, and strychnine for GlyR) and activated KCC2 using CLP257.^[ [35], [36] ^] […]
Cells or tissues were lysed by grinding in RIPA buffer (cat. no. PC101; Epizyme Biotech) supplemented with a protease inhibitor cocktail (cat. no. 5872S; Cell Signaling Technology) at 4 °C. […] The total protein concentration was determined using the Pierce BCA Protein Assay Kit (cat. no. 23 225, Thermo Fisher Scientific). […]

WNK1 = biological target: T1, WNK1 (Homo sapiens, UniProt Q9H4A3); experiment: CETSA-Western blotting in SH-SY5Y cells; assay type: cell-based; details: 6 µM in serum-free medium vs DMSO, denaturation at different temperatures, soluble fraction
T1 construct: endogenous in cells; host or cells: SH-SY5Y
T1 sequence (Q9H4A3 whole entry): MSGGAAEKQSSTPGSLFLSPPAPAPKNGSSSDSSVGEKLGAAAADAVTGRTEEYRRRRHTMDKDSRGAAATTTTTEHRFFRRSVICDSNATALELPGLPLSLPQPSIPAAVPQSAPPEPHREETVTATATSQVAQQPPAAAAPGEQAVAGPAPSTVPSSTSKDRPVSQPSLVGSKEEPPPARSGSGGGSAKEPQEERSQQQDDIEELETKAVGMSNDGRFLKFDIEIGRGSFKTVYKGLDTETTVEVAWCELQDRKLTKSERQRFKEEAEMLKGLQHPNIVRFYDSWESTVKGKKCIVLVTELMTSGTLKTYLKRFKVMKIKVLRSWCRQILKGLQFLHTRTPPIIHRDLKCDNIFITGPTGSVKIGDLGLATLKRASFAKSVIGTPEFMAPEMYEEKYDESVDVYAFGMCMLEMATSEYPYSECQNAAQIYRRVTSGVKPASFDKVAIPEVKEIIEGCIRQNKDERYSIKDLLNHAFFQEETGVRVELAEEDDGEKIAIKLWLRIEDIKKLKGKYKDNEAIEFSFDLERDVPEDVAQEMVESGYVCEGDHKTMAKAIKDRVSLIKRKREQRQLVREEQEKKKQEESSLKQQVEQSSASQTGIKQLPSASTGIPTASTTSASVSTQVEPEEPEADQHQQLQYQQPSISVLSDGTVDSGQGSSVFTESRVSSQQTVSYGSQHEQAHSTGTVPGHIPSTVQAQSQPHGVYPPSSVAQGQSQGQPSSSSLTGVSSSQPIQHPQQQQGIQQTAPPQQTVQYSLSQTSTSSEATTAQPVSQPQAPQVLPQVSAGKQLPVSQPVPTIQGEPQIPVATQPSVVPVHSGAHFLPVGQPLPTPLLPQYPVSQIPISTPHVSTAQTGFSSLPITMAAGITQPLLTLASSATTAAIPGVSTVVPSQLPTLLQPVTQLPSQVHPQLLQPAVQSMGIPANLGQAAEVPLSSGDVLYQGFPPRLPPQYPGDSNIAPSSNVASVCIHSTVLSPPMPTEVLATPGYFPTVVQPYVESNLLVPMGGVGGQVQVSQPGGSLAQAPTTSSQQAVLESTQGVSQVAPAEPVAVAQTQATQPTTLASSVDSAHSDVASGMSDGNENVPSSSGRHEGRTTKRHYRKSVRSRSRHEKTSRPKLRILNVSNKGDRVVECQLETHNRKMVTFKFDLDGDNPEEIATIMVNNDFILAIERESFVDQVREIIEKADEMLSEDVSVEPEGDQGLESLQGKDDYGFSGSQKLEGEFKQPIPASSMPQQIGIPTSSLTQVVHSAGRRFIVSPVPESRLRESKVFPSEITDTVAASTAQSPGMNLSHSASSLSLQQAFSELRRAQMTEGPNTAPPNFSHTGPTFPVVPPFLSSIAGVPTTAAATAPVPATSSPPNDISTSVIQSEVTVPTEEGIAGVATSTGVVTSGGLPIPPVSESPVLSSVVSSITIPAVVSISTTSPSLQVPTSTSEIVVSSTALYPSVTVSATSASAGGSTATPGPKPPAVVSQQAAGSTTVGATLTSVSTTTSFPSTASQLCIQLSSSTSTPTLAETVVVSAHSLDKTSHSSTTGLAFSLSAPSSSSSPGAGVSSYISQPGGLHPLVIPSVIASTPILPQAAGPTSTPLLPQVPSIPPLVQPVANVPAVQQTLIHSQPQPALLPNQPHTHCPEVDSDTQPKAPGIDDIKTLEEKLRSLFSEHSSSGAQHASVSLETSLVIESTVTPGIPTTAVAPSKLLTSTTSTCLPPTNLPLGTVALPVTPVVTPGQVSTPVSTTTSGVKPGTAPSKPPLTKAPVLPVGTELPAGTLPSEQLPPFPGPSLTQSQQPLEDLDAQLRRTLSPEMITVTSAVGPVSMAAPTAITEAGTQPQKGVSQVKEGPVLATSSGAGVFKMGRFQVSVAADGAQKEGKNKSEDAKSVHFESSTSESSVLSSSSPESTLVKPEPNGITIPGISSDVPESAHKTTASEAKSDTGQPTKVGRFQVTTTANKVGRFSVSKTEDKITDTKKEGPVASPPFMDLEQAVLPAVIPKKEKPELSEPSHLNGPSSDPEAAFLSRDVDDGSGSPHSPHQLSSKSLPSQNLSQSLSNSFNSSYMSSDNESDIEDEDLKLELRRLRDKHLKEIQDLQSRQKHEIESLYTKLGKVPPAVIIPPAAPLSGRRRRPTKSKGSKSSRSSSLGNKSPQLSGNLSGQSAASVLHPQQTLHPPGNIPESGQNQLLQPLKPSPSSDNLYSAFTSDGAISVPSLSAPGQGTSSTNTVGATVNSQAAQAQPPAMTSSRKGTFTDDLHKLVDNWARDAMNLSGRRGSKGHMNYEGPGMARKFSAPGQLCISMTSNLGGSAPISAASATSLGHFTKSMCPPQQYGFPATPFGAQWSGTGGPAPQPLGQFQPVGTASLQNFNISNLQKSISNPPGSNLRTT
Procedure: To validate these findings, SH‐SY5Y cells were incubated in a serum‐free medium with bilirubin (6 µM) or an equivalent amount of DMSO as the control, followed by protein denaturation at different temperatures (Figure 1A).
Cells or tissues were lysed by grinding in RIPA buffer (cat. no. PC101; Epizyme Biotech) supplemented with a protease inhibitor cocktail (cat. no. 5872S; Cell Signaling Technology) at 4 °C. The lysate was subsequently centrifuged at 16000 × g for 30 min at 4 °C and the resulting supernatant was collected. The total protein concentration was determined using the Pierce BCA Protein Assay Kit (cat. no. 23 225, Thermo Fisher Scientific). The samples were denatured in a Protein Sample Loading Buffer (cat. no. LT101; Epizyme Biotech) at 95 °C and subjected to SDS‐polyacrylamide gel electrophoresis. Following electrophoresis, the proteins were transferred onto a nitrocellulose membrane (cat. no. HATF00010; Millipore) using a transfer buffer composed of 25 mM Tris, 190 mM glycine, and 20% methanol. Membranes were blocked with blocking buffer for western blotting (cat. no. P0252; Beyotime Biotechnology) at room temperature for 15 min, followed by overnight incubation with the primary antibody at 4 °C. After primary antibody incubation, the membranes were washed and incubated with secondary antibody at room temperature for 1 h. […]

hWNK4 = biological target: T2, hWNK4 (Homo sapiens, UniProt Q96J92); experiment: MST, WNK kinase family member WNK4; assay type: binding
T2 construct: expressed in transfected cells; host or cells: HEK293T
T2 sequence (Q96J92 whole entry): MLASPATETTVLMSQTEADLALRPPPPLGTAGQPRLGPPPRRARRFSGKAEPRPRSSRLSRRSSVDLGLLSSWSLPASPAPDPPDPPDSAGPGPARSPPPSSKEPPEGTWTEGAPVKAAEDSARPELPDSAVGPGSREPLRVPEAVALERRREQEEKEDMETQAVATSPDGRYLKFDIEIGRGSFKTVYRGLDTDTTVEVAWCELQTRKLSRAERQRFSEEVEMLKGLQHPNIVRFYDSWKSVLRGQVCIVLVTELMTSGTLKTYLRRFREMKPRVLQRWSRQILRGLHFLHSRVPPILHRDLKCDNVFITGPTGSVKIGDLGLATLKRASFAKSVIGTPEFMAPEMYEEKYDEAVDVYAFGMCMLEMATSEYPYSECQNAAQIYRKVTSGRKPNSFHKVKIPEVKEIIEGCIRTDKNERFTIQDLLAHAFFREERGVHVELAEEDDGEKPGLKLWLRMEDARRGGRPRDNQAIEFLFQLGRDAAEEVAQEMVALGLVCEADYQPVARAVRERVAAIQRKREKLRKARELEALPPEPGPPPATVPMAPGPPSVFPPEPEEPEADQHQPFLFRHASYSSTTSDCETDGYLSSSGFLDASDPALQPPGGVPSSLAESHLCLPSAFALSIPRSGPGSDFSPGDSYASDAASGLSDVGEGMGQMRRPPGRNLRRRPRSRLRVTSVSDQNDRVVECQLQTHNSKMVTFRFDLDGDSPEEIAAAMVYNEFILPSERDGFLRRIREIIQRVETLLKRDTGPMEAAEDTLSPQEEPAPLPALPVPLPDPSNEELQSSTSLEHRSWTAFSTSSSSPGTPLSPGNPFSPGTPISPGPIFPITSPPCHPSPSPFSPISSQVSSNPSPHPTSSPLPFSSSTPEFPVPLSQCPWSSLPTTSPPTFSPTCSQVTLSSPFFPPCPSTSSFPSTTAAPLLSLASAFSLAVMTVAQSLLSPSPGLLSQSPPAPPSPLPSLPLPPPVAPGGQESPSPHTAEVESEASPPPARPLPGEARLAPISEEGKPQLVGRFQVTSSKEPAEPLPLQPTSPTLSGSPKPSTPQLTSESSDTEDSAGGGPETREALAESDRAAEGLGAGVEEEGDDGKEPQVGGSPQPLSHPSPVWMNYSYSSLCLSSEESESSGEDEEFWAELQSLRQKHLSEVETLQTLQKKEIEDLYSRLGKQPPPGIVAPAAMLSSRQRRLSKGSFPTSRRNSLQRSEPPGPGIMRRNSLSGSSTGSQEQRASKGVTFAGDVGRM
Procedure: To validate the direct binding of bilirubin to WNK1, we performed a Microscale Thermophoresis (MST) analysis, which assesses the binding capacity of a compound by measuring the movement of proteins over a microscopic temperature gradient.^[ [26], [27] ^] We overexpressed full‐length WNK1 fused with Green Fluorescent Protein (GFP) in HEK‐293 cells, incubated the lysates with bilirubin at varying dilutions, and subjected them to precise MST measurements in capillaries. […] Furthermore, biliverdin, a structurally similar intermediate product generated before bilirubin formation, was used as a control.
All WNK1 clones were derived from the original untagged hWNK1 cDNA (NM_018979), which was modified and subcloned into the pcDNA3.1, referred to as “full‐length WNK1” throughout this study. Truncated constructs, including 1–190aa, 191–491aa, 1–491aa, and 491–2382aa fragments, were generated by PCR using the full‐length template and subsequently ligated into linearized pcDNA3.1 vectors. WNK2 was obtained from Addgene Plasmid #24569, and WNK3 was obtained from Addgene Plasmid #81723. Both were subjected to base modifications and cloned into pcDNA3.1. The WNK4 clone was derived from hWNK4 cDNA (NM_032387.5), modified, and subcloned into the pCMV3‐C‐GFPSpark vector.
In HEK293T cells, proteins tagged with green fluorescent protein (GFP) were expressed. […]

PPARα = biological target: PPARα; parameters: method as in PMID 37390966, PMID 34067839; details: liver and adipose tissue; cited from earlier work

- thermal stability of WNK1 (WNK1): enhanced thermal stability
- pKd (hWNK4): 6.55
Compound: C=CC1=C(C)/C(=C/c2[nH]c(Cc3[nH]c(/C=C4\NC(=O)C(C)=C4C=C)c(C)c3CCC(=O)O)c(CCC(=O)O)c2C)NC1=O [bilirubin, Bilirubin]
- relative expression of phospho-S940 KCC2 (phospho-S940 KCC2; Wnk1fl/fl mice hippocampal tissue): decrease
- relative expression of phospho-S940 KCC2 (phospho-S940 KCC2; Wnk1fl/fl,Thy1-Cre mice hippocampal tissue): no such effect
- pKd (PPARα): 5.29
